Experiments:
[1] = biological target: T1, Human KIF18A (amino acid sequence 1-417) (Homo sapiens, UniProt Q8NI77); test: Enzyme activity detection experiment (ADP-Glo, KIF18A with tubulin and ATP); format: biochemical; details: tubulin 60 μg/mL, ATP 25 μM, KIF18A protein 2.5 nM, 120 minutes at ambient temperature, ADP-Glo chemiluminescence
T1 construct: purchased Viva Biotech (Shanghai) Ltd
Method: Materials: Human KIF18A (amino acid sequence 1-417) was obtained from Viva Biotech (Shanghai) Ltd., and the ADP-Glo™ protein kinase kit was acquired from Promega, USA. Tubulin was sourced from Cytoskeleton, USA, while a 384-well assay plate and the Envision multifunctional microplate reader were obtained from PerkinElmer, USA.
Enzyme activity detection: The compound powder in DMSO was firstly dissolved to prepare a 10 mM stock solution. Next, gradient dilutions were prepared in the microplate to achieve final concentrations of […]. Sequentially, 2.5 μL of tubulin (60 μg/mL), the compound, ATP (25 μM), and KIF18A protein (2.5 nM) were added to each well, and the reaction was incubated at ambient temperature for 120 minutes. After the reaction, 10 μL of ADP-Glo™ reagent was added to each well and incubated at ambient temperature for 30 minutes. Subsequently, 20 μL of detection reagent was added to each well and incubated for an additional 30 minutes in the dark. Finally, chemiluminescence detection was performed using the PerkinElmer Envision multifunctional microplate reader.

[2] = test system: OVCAR3 cells; test: Cell proliferation activity test, OVCAR3 (CyQUANT Direct); format: cell-based; details: Homo sapiens, OVCAR-3, 72 h, 3 days incubation, CyQUANT fluorescence detection, read-out: OVCAR-3 Cell Viability_IC50_nM
Method: Materials and Cells: OVCAR3 cells were purchased from Nanjing Cobioer Biosciences Co., Ltd. RPMI-1640 medium, fetal bovine serum, and the CyQUANT Direct Cell Proliferation Assay kit were purchased from Thermo Fisher Scientific, USA; 96-well cell culture plates were sourced from Corning, USA.
Cell Culture: Culture OVCAR3 cells with RPMI-1640 medium containing […] and incubate them in a […] incubator at 37° C. Only cells in the logarithmic growth phase can be used for the test.
Inoculate OVCAR3 cells into a 96-well cell culture plate at 90 μL per well and incubate overnight in a […] incubator at 37° C. Dissolve the compound powder in DMSO to prepare a stock solution of 10 mM. Then perform gradient dilution for the compounds in the microplate to achieve a final concentration of 0-10 μM. Add 10 μL of cell culture medium containing compounds to each well to make the final DMSO content 0.20%. Incubate the cell plates in a […] incubator at 37° C. for 3 days. Add 100 μL of CyQUANT detection reagent to each well, react at 37° C. for 60 min, and perform fluorescence detection using the PerkinElmer Envision.

[3] = test system: HT29 cells; test: CyQuant cell proliferation activity test, HT29; format: cell-based; details: Homo sapiens, HT-29, 72 h, HT29 2000 cells per well, 3 days incubation, initial concentration 3000 nM, IC50 by XLFIT, read-out: HT-29 Cell Viability_IC50_nM
Method: Materials and Cells: HT29 cells were purchased from Nanjing Cobioer Biosciences Co., Ltd.; RPM-1640 medium, fetal bovine serum, Trypsin-EDTA (0.25%), DMSO, 96-well plates, and CyQuant reagents were purchased from ThermoFisher (USA).
Cell Culture: Culture HT29 cells with RPMI-1640 containing 10% fetal bovine serum under the condition of 37° C. and 5% CO2. Only cells in the logarithmic growth phase can be used for the test.
Cell Proliferation Activity Test: Use the CyQuant reagent to detect the proliferation inhibitory activity of compounds on HT29 cells. Adjust the cell density and inoculate 100 μL per well into the 96-well plate (HT29 at 2000 cells per well), then incubate overnight under the condition of 37° C. and […]. Add compounds of various target concentrations (initial concentration of 3000 nM, 3-fold dilution, 9 concentration gradients), and make the DMSO content 0.20%. Incubate the cell plates at 37° C. and 5% CO2 for 3 days. Incubate with CyQuant reagent for 1 h, read the plate by Envision, and calculate IC50 using XLFIT.

T1 sequence (Q8NI77 1-417): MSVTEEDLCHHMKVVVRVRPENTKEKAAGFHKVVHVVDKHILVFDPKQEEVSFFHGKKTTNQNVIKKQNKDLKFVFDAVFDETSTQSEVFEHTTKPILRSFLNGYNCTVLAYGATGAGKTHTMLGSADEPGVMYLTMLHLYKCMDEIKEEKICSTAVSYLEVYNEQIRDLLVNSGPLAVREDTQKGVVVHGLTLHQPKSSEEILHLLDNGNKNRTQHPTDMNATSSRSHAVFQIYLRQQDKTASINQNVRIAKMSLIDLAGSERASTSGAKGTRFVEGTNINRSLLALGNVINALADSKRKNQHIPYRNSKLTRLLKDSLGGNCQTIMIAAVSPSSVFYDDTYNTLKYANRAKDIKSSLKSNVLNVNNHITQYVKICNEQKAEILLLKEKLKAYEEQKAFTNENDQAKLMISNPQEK
T1 sequence (Q2XVP4 whole entry partner): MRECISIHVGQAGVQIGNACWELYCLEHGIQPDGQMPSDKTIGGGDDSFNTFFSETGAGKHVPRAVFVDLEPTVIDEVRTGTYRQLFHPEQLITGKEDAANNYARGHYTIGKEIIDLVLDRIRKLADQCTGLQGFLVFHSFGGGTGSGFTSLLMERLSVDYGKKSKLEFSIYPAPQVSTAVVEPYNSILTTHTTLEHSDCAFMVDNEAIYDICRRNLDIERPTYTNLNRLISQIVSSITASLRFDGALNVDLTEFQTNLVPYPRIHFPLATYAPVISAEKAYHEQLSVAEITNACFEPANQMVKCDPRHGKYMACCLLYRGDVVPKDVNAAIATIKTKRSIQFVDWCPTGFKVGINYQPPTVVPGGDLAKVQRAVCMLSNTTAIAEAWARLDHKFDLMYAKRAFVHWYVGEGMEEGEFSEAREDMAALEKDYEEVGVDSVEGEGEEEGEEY
T1 sequence (P02554 whole entry partner): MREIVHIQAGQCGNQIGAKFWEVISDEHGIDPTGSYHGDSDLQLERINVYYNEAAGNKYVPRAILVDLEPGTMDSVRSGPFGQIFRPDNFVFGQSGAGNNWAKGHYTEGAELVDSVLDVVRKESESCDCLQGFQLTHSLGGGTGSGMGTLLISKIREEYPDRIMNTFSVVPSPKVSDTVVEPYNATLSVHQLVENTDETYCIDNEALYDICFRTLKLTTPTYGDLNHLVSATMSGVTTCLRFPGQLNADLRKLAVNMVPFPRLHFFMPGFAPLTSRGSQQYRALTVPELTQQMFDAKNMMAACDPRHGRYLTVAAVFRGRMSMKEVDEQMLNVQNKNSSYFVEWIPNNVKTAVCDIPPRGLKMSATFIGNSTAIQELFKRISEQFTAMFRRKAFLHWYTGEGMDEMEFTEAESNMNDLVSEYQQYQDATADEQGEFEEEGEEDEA

Structure (SMILES)	IC50 [1]	IC50 [2]	IC50 [3]
COc1cc(-c2nnc(-c3ccc(NS(=O)(=O)CCO)cc3N3CCC4(CC3)CC4)o2)nc(N2CCC(F)(F)CC2)n1 [Example 20, N-(4-(5-(2-(4,4-difluoropiperidin-1-yl)-6-methoxypyrimidin-4-yl)-1,3,4-oxadiazol-2-yl)-3-(6-azaspiro[2.5]octan-6-yl)phenyl)-2-hydroxyethane-1-sulfonamide]	61 nM	139 nM	55 nM
O=S(=O)(CCO)Nc1ccc(-c2nnc(-c3cc(O)nc(N4CCC(F)(F)CC4)n3)o2)c(N2CCC3(CC2)CC3)c1 [Example 21, N-(4-(5-(2-(4,4-difluoropiperidin-1-yl)-6-hydroxypyrimidin-4-yl)-1,3,4-oxadiazol-2-yl)-3-(6-azaspiro[2.5]octan-6-yl)phenyl)-2-hydroxyethane-1-sulfonamide]	67 nM	1620 nM	> 3000 nM
COc1cc(-c2nnc(-c3ccc(NS(=O)(=O)CCO)cc3N3CCC4(CC3)CC4)o2)cc(N2CCC(F)(F)CC2)n1 [Example 22, N-(4-(5-(2-(4,4-difluoropiperidin-1-yl)-6-methoxypyridin-4-yl)-1,3,4-oxadiazol-2-yl)-3-(6-azaspiro[2.5]octan-6-yl)phenyl)-2-hydroxyethane-1-sulfonamide]	46 nM	34 nM	23 nM
Cc1cc(-c2nnc(-c3ccc(NS(=O)(=O)CCO)cc3N3CCC4(CC3)CC4)o2)c(F)c(N2CCC(F)(F)CC2)n1 [Example 23, N-(4-(5-(2-(4,4-difluoropiperidin-1-yl)-3-fluoro-6-methylpyridin-4-yl)-1,3,4-oxadiazol-2-yl)-3-(6-azaspiro[2.5]octan-6-yl)phenyl)-2-hydroxyethane-1-sulfonamide]	153 nM	115 nM	118 nM
Cc1cc(-c2nnc(-c3ccc(NS(=O)(=O)CCO)cc3N3CCC4(CC3)CC4)o2)cc(N2CCC(F)(F)CC2)n1 [Example 24, N-(4-(5-(2-(4,4-difluoropiperidin-1-yl)-6-methylpyridin-4-yl)-1,3,4-oxadiazol-2-yl)-3-(6-azaspiro[2.5]octan-6-yl)phenyl)-2-hydroxyethane-1-sulfonamide]	51 nM	16 nM	20 nM
Cc1cc(-c2nnc(-c3ccc(NS(=O)(=O)CCO)cc3N3CCC4(CC3)CC4)o2)nc(N2CCC(F)(F)CC2)c1 [Example 25, N-(4-(5-(6-(4,4-difluoropiperidin-1-yl)-4-methylpyridin-2-yl)-1,3,4-oxadiazol-2-yl)-3-(6-azaspiro[2.5]octan-6-yl)phenyl)-2-hydroxyethane-1-sulfonamide]	46 nM	91 nM	122 nM
Cc1cc(N2CCC(F)(F)CC2)nc(-c2nnc(-c3ccc(NS(=O)(=O)CCO)cc3N3CCC4(CC3)CC4)o2)c1Cl [Example 26, N-(4-(5-(3-chloro-6-(4,4-difluoropiperidin-1-yl)-4-methylpyridin-2-yl)-1,3,4-oxadiazol-2-yl)-3-(6-azaspiro[2.5]octan-6-yl)phenyl)-2-hydroxyethane-1-sulfonamide]	287 nM	767 nM	1270 nM
Cc1cc(N2CCC(F)(F)CC2)nc(-c2nnc(-c3ccc(NS(=O)(=O)CCO)cc3N3CCC4(CC3)CC4)o2)n1 [Example 27, N-(4-(5-(4-(4,4-difluoropiperidin-1-yl)-6-methylpyrimidin-2-yl)-1,3,4-oxadiazol-2-yl)-3-(6-azaspiro[2.5]octan-6-yl)phenyl)-2-hydroxyethanesulfonamide]	124 nM	875 nM	24600 nM
Cc1cc(-c2nnc(-c3ccc(N4CCCS4(=O)=O)cc3N3CCC4(CC3)CC4)o2)nc(N2CCC(F)(F)CC2)n1 [Example 28, 2-(4-(5-(2-(4,4-difluoropiperidin-1-yl)-6-methylpyrimidin-4-yl)-1,3,4-oxadiazol-2-yl)-3-(6-azaspiro[2.5]octan-6-yl)phenyl)isothiazolidine 1,1-dioxide]	293 nM	118 nM	192 nM
O=S(=O)(CCO)Nc1ccc(-c2nnc(-c3cc4cccnc4c(N4CCC(F)(F)CC4)n3)o2)c(N2CCC3(CC2)CC3)c1 [Example 29, N-(4-(5-(8-(4,4-difluoropiperidin-1-yl)-1,7-naphthyridin-6-yl)-1,3,4-oxadiazol-2-yl)-3-(6-azaspiro[2.5]octan-6-yl)phenyl)-2-hydroxyethanesulfonamide]	48 nM	37 nM	45 nM
O=S(=O)(CCO)Nc1ccc(-c2nnc(-c3cc4cccnc4c(N4CCC(F)(F)CC4)c3F)o2)c(N2CCC3(CC2)CC3)c1 [Example 30, N-(4-(5-(8-(4,4-difluoropiperidin-1-yl)-7-fluoroquinolin-6-yl)-1,3,4-oxadiazol-2-yl)-3-(6-azaspiro[2.5]octan-6-yl)phenyl)-2-hydroxyethane-1-sulfonamide]	255 nM	55 nM	61 nM
Cn1cc(-c2ccc(-c3nnc(-c4ccc(NS(=O)(=O)CCO)cc4N4CCC5(CC4)CC5)o3)nc2N2CCC(F)(F)CC2)cn1 [Example 31, N-(4-(5-(6-(4,4-difluoropiperidin-1-yl)-5-(1-methyl-1H-pyrazol-4-yl)pyridin-2-yl)-1,3,4-oxadiazol-2-yl)-3-(6-azaspiro[2.5]octan-6-yl)phenyl)-2-hydroxyethane-1-sulfonamide]	161 nM	16 nM	11 nM
O=S(=O)(CCO)Nc1ccc(-c2nnc(-c3cc4cccn4c(N4CCC(F)(F)CC4)n3)o2)c(N2CCC3(CC2)CC3)c1 [Example 32]	113 nM	187 nM	251 nM
O=S(=O)(CCO)Nc1ccc(-c2nnc(-c3cc4ccoc4c(N4CCC(F)(F)CC4)n3)o2)c(N2CCC3(CC2)CC3)c1 [Example 33]	61 nM	34 nM	65 nM
Cc1cc(-c2cn(-c3ccc(NS(=O)(=O)CCO)cc3N3CCC4(CC3)CC4)nn2)nc(N2CCC(F)(F)CC2)n1 [Example 34, N-(4-(4-(2-(4,4-difluoropiperidin-1-yl)-6-methylpyrimidin-4-yl)-1H-1,2,3-triazol-1-yl)-3-(6-azaspiro[2.5]octan-6-yl)phenyl)-2-hydroxyethanesulfonamide]	56 nM	12 nM	15 nM
Cc1cc(-c2cn(-c3ccc(NS(=O)(=O)CCO)cc3N3CCC4(CC3)CC4)nn2)nc(C2=CCOCC2)n1 [Example 35, N-(4-(4-(2-(3,6-dihydro-2H-pyran-4-yl)-6-methylpyrimidin-4-yl)-1H-1,2,3-triazol-1-yl)-3-(6-azaspiro[2.5]octan-6-yl)phenyl)-2-hydroxyethane-1-sulfonamide]	42 nM	23 nM	21 nM
Cc1cc(-c2cn(-c3ccc(NS(=O)(=O)CCO)cc3N3CCC4(CC3)CC4)nn2)nc(C2CCOCC2)n1 [Example 36, 2-hydroxy-N-(4-(4-(6-methyl-2-(tetrahydro-2H-pyran-4-yl)pyrimidin-4-yl)-1H-1,2,3-triazol-1-yl)-3-(6-azaspiro[2.5]octan-6-yl)phenyl)ethane-1-sulfonamide]	50 nM	30 nM	39 nM

— patent US20250304551A1 (SHANGHAI APEIRON THERAPEUTICS COMPANY LIMITED, priority 2022, published 2025)
